{"source": "patent US7955838B2", "about": "“Methods and device for adhesive control of internal cell organisation” (Institut Curie, priority 2003, dated 2011)", "tested_on": "HeLa cells stably expressing centrin1-GFP", "test": "Nocodazole treatment of premitotic cells on [L] fibronectin micropatterns (centrosome separation, cell rounding, spindle orientation)", "assay_type": "cell-based, human", "conditions": "for Distribution of spindle orientations after nocodazole wash-out: after wash-out of 10^−7 M nocodazole, [L] patterns, versus non-treated cells", "experimental": "HeLa, human epithelial cells, stably expressing centrin1-GFP (Piel et al. J. Cell Biol. 149, 317-329 (2000), were cultured in Dulbecco Modified Eagle Medium with 10% foetal calf serum, 1% penicillin and streptomycin, and 1% glutamine at 37° C. Cells were synchronised using a double thymidine block and then removed from their flask using […], 10 minutes at 37° C. After removing the […] by centrifugation, cells were resuspended in DMEM with 1% FCS and deposited on the printed coverslip at a density of 10^4 cells/cm^2. The inventors used an inverted Leica DMIRBE microscope with an heated and motorized stage combined with a home-made plastic cell chamber to hold the printed glass coverslip, which was covered by a porous membrane allowing CO2 buffering at pH-7.4. Metamorph software (Universal Imaging) was used for image acquisition. Numerous cell divisions were followed using a time-lapse phase contrast on a multi-fields acquisition at a frame rate of one picture every 3 minutes with a 10× magnitude objective. Centrosome movements were followed during mitosis with a 63× apochromat objective lens (Leica) using fluorescent Z acquisitions through a green filter and a phase contrast picture of the cell bottom every 5 minutes. A software has been developed. This software was able to automatically recognise a single fluorescent micropattern within a field and detect the presence of a single cell attached to it. Individual cell divisions were extracted from the 10× phase contrast time-lapse recordings and every picture automatically segmented using a wavelet decomposition and fitted with an ellipse (FIG. 1b). The moment of cell elongation in anaphase was precisely detected, as the shape factor, defined as the ellipse length ratio, suddenly dropped from more than 0.9 to less than 0.6 (FIG. 1c). The angle between the major axis of the ellipse, corresponding to spindle orientation, and the vertical reference of the pattern oriented as shown on FIG. 2 was then recorded. The position of the centre of the round mitotic cell with respect to the pattern was also automatically recorded 6 minutes before anaphase.[…]. The mechanisms by which the premitotic actin network is remodeled during mitotic cortical retraction and the correlative formation of actin-rich retraction fibers are not fully understood. In order to address whether spindle assembly had to take place during the remodelling of the actin network to be correctly oriented, centrosomes were prevented from separating during cell retraction on [L] patterns by treating premitotic cells with 10^-7 M nocodazole during one hour. […] After nocodazole washout, centrosomes separated and formed a bipolar spindle (FIG. 4C). […] RFs are good candidates for guiding spindle orientation as they are maintained despite nocodazole treatment.", "key": {"[1]": {"conditions": "10^−7 M nocodazole during one hour, premitotic cells on [L] patterns"}}}
{"compound": "COC(=O)Nc1nc2ccc(C(=O)c3cccs3)cc2[nH]1", "note": "[nocodazole]", "values": [{"measurement": "Effect on cell rounding", "setting": "[1]", "result": "did not block cell rounding"}, {"measurement": "Effect on mitosis / centrosome separation", "setting": "[1]", "result": "blocked cells in metaphase with unseparated centrosomes"}, {"measurement": "Distribution of spindle orientations after nocodazole wash-out", "result": "still preferentially orientated parallel to the hypotenuse of the triangle"}, {"measurement": "Distribution of spindle orientations after nocodazole wash-out", "setting": "listed as NZ", "result": "spindles are still able to mainly orient in round cell bodies as in control cells"}, {"measurement": "Retracting fibers (RFs) under nocodazole treatment", "setting": "nocodazole-treated mitotic cells on [L] patterns", "result": "maintained"}]}
